Experimental data taken from patent US4298739A, “Novel carbostyril derivatives” (priority 1977, dated 1981).

Tests used:
[1] = Acute toxicity test, oral administration to mice; assay type: in vivo; details: mouse, in vivo, Male mice
Method: The test compounds were administered orally to the mice and LD50 (mg/kg) of the compounds was determined.

rabbit platelet [2] = assay: ADP-induced aggregation in rabbit platelets (AG-II Aggregometer); assay type: cell-based; details: Oryctolagus cuniculus, Platelet, read-out: Inhibition effect on ADP-induced aggregation in rabbit platelet; for inhibition at 100 µM (stock): 10^-4 mole; for inhibition at 10 µM (stock): 10^-5 mole; for inhibition at 1 µM (stock): 10^-6 mole
Method: (§1) The platelet aggregation inhibitory effect is measured by using AG-II Aggregometer (manufactured by Bryston Manufacturing Co.). The blood sample used for the test is a 1/9 (by volume) mixture of sodium citrate and whole blood collected from rabbit. Said sample is subjected to 10-minute centrifugal separation at 1,000 r.p.m. to obtain a platelet rich plasma (PRP). The thus obtained PRP is separated, and the remaining blood sample is further subjected to 15-minute centrifugal separation at 3,000 r.p.m. to obtain a platelet poor plasma (PPP).
(§2) The number of platelets in the PRP is counted by the Brecher-Clonkite Method, and the PRP is diluted with the PPP to prepare a PRP sample with platelet concentration of 300,000/mm^3 for the adenosine diphosphate (ADP)-induced aggregation test. There is also prepared a PRP sample with platelet concentration of 450,000/mm^3 for the collagen-induced aggregation test.
(§3) 0.6 ml of said PRP sample is added into 0.01 ml of a solution of a test compound of a predetermined concentration and the mixture is placed in a 37° C. thermostat for one minute. Then 0.07 ml of an ADP or collagen solution is added to the mixture. Transmittance of this mixture is determined and the change of transmittance is recorded by using the aggregometer at stirrer speed of 1,100 r.p.m. In this test, Auren Beronal buffer (pH 7.35) is used for the preparation of the ADP or collagen solution. ADP is adjusted to a concentration of 7.5×10^-5 M, and the collagen solution is prepared by triturating 100 mg of collagen with 5 ml of said buffer and the supernatant is used as collagen inducer. Adenosine and acetylsalicylic acid are used as controls for the ADP-induced aggregation test and the collagen-induced aggregation test, respectively. The platelet aggregation inhibitory effect is measured in terms of percent inhibition with respect to the aggregation rate of the controls. The aggregation rate is calculated from the following formula:
(§4) Aggregation rate=(c-a)/(b-a)×100
(§5) b: transmittance of PRP containing a test compound and an aggregation inducer
(§6) The inhibitory effect of the tested compounds on collagen-induced aggregation in rabbit platelets is shown in Table 1, and such effect on ADP-induced aggregation is shown in Table 2. The compounds tested are as follows.

rabbit platelet [3] = assay: Collagen-induced aggregation in rabbit platelets (AG-II Aggregometer); assay type: cell-based; details: Oryctolagus cuniculus, Platelet, read-out: Inhibition effect on collagen induced aggregation in rabbit platelet; for inhibition at 100 µM (stock): 10^-4 mole; for inhibition at 10 µM (stock): 10^-5 mole; for inhibition at 1 µM (stock): 10^-6 mole
Method: as §1, §2, §3, §4, §5, §6

| Compound | LD50 [1] | inhibition at 100 µM (stock) (rabbit platelet [2]) | inhibition at 10 µM (stock) (rabbit platelet [2]) | inhibition at 1 µM (stock) (rabbit platelet [2]) | inhibition at 100 µM (stock) (rabbit platelet [3]) | inhibition at 10 µM (stock) (rabbit platelet [3]) | inhibition at 1 µM (stock) (rabbit platelet [3]) |
| --- | --- | --- | --- | --- | --- | --- | --- |
| O=C(CCCOc1ccc2[nH]c(=O)ccc2c1)N(c1ccccc1)C1CCCCC1 [compound 17, 6-[3-(N-Cyclohexylanilinocarbonyl)propoxy]carbostyril] | > 1000 mg/kg | 82.5% | 38.7% | 12.3% | 91.5% | 53.8% | 16.7% |
| O=C(CCCOc1ccc2c(c1)CCC(=O)N2)Nc1ccccc1 [compound 19, 6-[3-(Anilinocarbonyl)propoxy]-3,4-dihydrocarbostyril] | > 1000 mg/kg | 24.6% | 16.2% |  | 93.8% | 17.4% |  |
| CCCCN(C(=O)CCCCOc1ccc2c(c1)CCC(=O)N2)C1CCCCC1 [compound 22, 6-[4-(N-Butyl-N-cyclohexylaminocarbonyl)buthoxy]-3,4-dihydrocarbostyril] | > 1000 mg/kg | 71.5% | 32.7% | 10.5% | 85.6% | 78.5% | 28.7% |
| O=C1CCc2cc(OCCCC(=O)N(c3ccccc3)c3ccccc3)ccc2N1 [compound 24, 6-[3-(N,N-Diphenylaminocarbonyl)propoxy]-3,4-dihydrocarbostyril] | > 1000 mg/kg | 43.2% | 22.3% | 13.4% | 82.7% | 43.5% | 15.5% |
| CC(C)(Oc1ccc2c(c1)CCC(=O)N2)C(=O)O [compound 38, 6-(1-Methyl-1-carboxyethoxy)-3,4-dihydrocarbostyril, reference compound] | 800 to 1000 mg/kg | 10% | 5% | 3% | 5% | 3% | 0% |
| O=C(O)CCCOc1ccc2[nH]c(=O)ccc2c1 [compound 39, 6-(3-Carboxypropoxy)carbostyril, reference compound] | > 1000 mg/kg | 52% | 23% | 5% | 28% | 15% | 0% |
| O=C1CCc2cc(OCCCC(=O)OC3CCCCC3)ccc2N1 [compound 40, 6-(3-Cyclohexyloxycarbonylpropoxy)-3,4-dihydrocarbostyril, reference compound] | 500 to 800 mg/kg | 28% | 16% | 7% | 12% | 8% | 0% |
| CC(C)NC(=O)CCOc1cccc2c1CCC(=O)N2 [compound 41, 5-(N-Isopropylaminocarbonylethoxy)-3,4-dihydrocarbostyril, reference compound] | 500 to 800 mg/kg | 18% | 13% | 7% | 17% |  | 0% |
| O=C1CCc2c(cccc2OCC(=O)N2CCOCC2)N1 [compound 42, 5-(Morpholinocarbonylmethoxy)-3,4-dihydrocarbostyril, reference compound] | 400 to 600 mg/kg | 13% | 6% | 0% | 5% | 0% | 0% |
| CN(C)C(=O)COc1cccc2c1CCC(=O)N2 [compound 43, 5-(N,N-dimethylaminocarbonylmethoxy)-3,4-dihydrocarbostyril, reference compound] | 500 to 700 mg/kg | 22% | 17% | 8% | 27% | 13% | 0% |
